Assay results taken from patent publication US9623108B2, “Formulation for oral administration with beneficial effects on the cardiovascular system” (ROTTAPHARM S.p.A., priority 2006, dated 2017).

Assays:
HMG-CoA-r = target: T1, HMG-CoA-r (Homo sapiens, UniProt P04035); settings: competition with HMG-CoA at HMG-CoA-r; cited from earlier work
T1 sequence (P04035 1-888): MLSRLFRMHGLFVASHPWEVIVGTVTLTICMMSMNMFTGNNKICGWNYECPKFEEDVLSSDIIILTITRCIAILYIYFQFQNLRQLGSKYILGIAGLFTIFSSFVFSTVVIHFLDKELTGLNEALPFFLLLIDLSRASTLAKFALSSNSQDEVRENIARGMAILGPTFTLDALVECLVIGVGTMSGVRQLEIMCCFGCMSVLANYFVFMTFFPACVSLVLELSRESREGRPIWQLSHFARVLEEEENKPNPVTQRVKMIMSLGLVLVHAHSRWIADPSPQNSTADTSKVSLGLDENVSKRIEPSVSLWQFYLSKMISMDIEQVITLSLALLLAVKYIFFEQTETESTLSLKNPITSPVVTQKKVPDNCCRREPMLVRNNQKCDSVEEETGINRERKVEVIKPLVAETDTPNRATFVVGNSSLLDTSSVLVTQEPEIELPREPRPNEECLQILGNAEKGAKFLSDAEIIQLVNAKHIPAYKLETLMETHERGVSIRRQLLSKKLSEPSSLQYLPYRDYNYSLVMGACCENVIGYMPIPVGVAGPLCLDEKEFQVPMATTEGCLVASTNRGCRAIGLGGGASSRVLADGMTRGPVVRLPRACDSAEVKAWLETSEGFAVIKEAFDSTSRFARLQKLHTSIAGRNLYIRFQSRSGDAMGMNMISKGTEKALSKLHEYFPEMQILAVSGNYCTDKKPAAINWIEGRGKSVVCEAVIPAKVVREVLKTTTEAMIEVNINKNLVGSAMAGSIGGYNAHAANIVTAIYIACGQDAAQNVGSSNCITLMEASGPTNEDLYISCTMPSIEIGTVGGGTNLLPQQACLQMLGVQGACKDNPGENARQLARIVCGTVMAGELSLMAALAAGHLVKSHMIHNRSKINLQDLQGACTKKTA

[1] = test system: rabbits rendered hypercholesterolaemic and hypertriglyceridaemic; test: Rabbits rendered hypercholesterolaemic and hypertriglyceridaemic with atherogenic feed, 3 months treatment, blood lipid analyses; format: in vivo, New Zealand White rabbits
Description: The action of the active principles, according to the composition of COMB, was tested and evaluated experimentally on rabbits rendered hypercholesterolaemic and hypertriglyceridaemic with a diet with added cholesterol, powdered egg yolk and lard. Note: all the daily doses used in the treatment groups, described in the experimental section, are about 4 times higher than those stated in the examples of formulation described in a later section. An exception is the group treated with berberine 100 mg/kg, for which the dose of active principle corresponds to about 13 times that contained in the examples of formulations intended for oral administration in humans. […] The difference in posology between animals and humans is perfectly normal in pharmacology, because it is well known that the pathologies induced experimentally in animals are always dramatically and unnaturally more severe than those that occur spontaneously in humans. New Zealand White rabbits of 6-8 weeks and with body weight of 1.8-2.0 kg. The following feeds, in pellets, were provided at a ration of 150 g of feed per day. Water was available ad libitum. ATER: Atherogenic feed, i.e. standard feed for guinea pigs and rabbits according to Sherman, in pellets (Laboratorio Dottori […].) with addition of 10% powdered egg yolk, 10% lard and 1% cholesterol according to Kong et al. [2004]. The substances under investigation were administered by stomach tube, once a day, suspended in 2 ml/kg of carboxymethylcellulose 0.2% (CMC). All the animals were acclimatized in the living quarters at 25±2° C. and relative humidity 55-65%. After 1 week, blood samples were taken in order to obtain the baseline data. The animals were then randomized to the following treatment groups of 10 rabbits each. AT: Controls with feed ATER and with daily administration of 2 ml/kg of CMC by stomach tube. Ber30: Feed AT, with daily administration of berberine 30 mg/kg in 2 ml/kg of CMC, by stomach tube. Ber100: Feed AT, with daily administration of berberine 100 mg/kg in 2 ml/kg of CMC, by stomach tube. Ass (reference association (combination) for lowering blood lipid level): Feed AT, with daily administration of Ass in 2 ml/kg of CMC, by stomach tube. COMB: Feed AT, with daily administration of Ass with addition of 30 mg/kg of berberine in 2 ml/kg of CMC, by stomach tube. The treatments were continued for 3 months. […] These analyses were carried out with suitably validated, conventional laboratory methods. A descriptive statistical analysis was performed using conventional methods of calculation.

[2] = test system: hypercholesterolaemic patients; settings: berberine 500 mg b.i.d.; cited from earlier work
[3] = test system: patients who had hypercholesterolaemia and hypertriglyceridaemia; settings: 500 mg berberine in a single dose once a day; cited from earlier work
[4] = NOAEL, doses repeated daily in an animal; format: in vivo; settings: equivalent of the animal NOAEL in humans
[5] = berberine 30 mg/kg/d by stomach tube, not statistically significant
[6] = berberine 100 mg/kg/d by stomach tube, p<0.001

For `CC[C@H](C)C(=O)O[C@H]1C[C@@H](C)C=C2C=C[C@H](C)[C@H](CC[C@@H]3C[C@@H](O)CC(=O)O3)[C@H]21` [Monacoline K], the “activity for the enzyme relative to the natural substrate HMG-CoA” value (HMG-CoA-r) is listed as 2000 times.

With `COc1ccc2cc3[n+](cc2c1OC)CCc1cc2c(cc1-3)OCO2` [berberine, 5,6-dihydro-9,10-dimethoxybenzo[g]-1,3-benzodioxolo[5,6-a]quinolizinium] the “increase in HDL” value ([1]; berberine 30 mg/kg/d) was 0.48 mmol/L, the “reduction of the increase in LDL caused by AT” value [1, 5] was 13% and the “reduction of the increase in total cholesterol (CT) caused by AT” value [1, 5] was 15%. The “reduction of the increase in blood triglycerides (TG) caused by AT” value ([1]; berberine 30 mg/kg/d by stomach tube, p<0.01) was 43%, the “increase in HDL” value ([1]; berberine 100 mg/kg/d) was 0.53 mmol/L and the “reduction of the increase in LDL caused by AT” value [1, 6] was 89%. For the same molecule, the “reduction of the increase in blood triglycerides (TG) caused by AT” value [1, 6] was 66%, the “reduction of the increase in total cholesterol (CT) caused by AT” value [1, 6] was 87% and the hepatic transaminases [2] was “decrease in hepatic transaminases”. For the same molecule, the hepatic transaminases [3] was “improved” and the “tolerability of the treatment” value [3] was “well tolerated”.

For `CC1=C(/C=C/C(C)=C/C=C/C(C)=C/C=C/C=C(C)/C=C/C=C(C)/C=C/C2=C(C)C(=O)[C@@H](O)CC2(C)C)C(C)(C)C[C@H](O)C1=O` [Ast, 3,3′-dihydroxy-β,β′-carotene-4,4′-dione], the “NOAEL equivalent in humans” value [4] was “more than 80 g”.
